Test results from ChEMBL document CHEMBL4828775, “Antimicrobial and Cytotoxic Angucyclic Quinones from Actinomadura miaoliensis” (J Nat Prod, 2021).
In brackets after ≈: the same amount, converted by molar mass.

What was measured:
MCF7 = test: Cytotoxicity against human MCF7 cells assessed as reduction in cell viability by resazurin microplate assay; assay type: functional, cell-based
[1] = system: Mycobacterium tuberculosis; test: Antitubercular activity against Mycobacterium tuberculosis H37Ra assessed as inhibition of bacterial growth by green fluorescent protein based method; assay type: functional
Acinetobacter baumannii = test: Antibacterial activity against Acinetobacter baumannii assessed as inhibition of bacterial growth by CLSI based microdilution method; assay type: functional
Curvularia lunata = test: Antifungal activity against Curvularia lunata assessed as inhibition of fungal growth by CLSI based microdilution method; assay type: functional
Alternaria brassicicola = test: Antifungal activity against Alternaria brassicicola assessed as inhibition of fungal growth by CLSI based microdilution method; assay type: functional
Vero = test: Cytotoxicity against African green monkey Vero cells assessed as reduction in cell viability by resazurin microplate assay; assay type: cell-based; conditions: Chlorocebus sabaeus
NCI-H187 = test: Cytotoxicity against human NCI-H187 cells assessed as reduction in cell viability by resazurin microplate assay; assay type: functional, cell-based
Staphylococcus aureus = test: Antibacterial activity against Staphylococcus aureus assessed as inhibition of bacterial growth by CLSI based microdilution method; assay type: functional
Plasmodium falciparum = test: Antimalarial activity against Plasmodium falciparum K1 assessed as inhibition of parasite growth by microculture radioisotope technique; assay type: functional, organism-based

Structure (SMILES)	IC50 (MCF7) [µM]	MIC [1] [µM]	MIC (Acinetobacter baumannii) [µM]	MIC (Curvularia lunata) [µM]	MIC (Alternaria brassicicola) [µM]	IC50 (Vero) [µM]	IC50 (NCI-H187) [µM]	MIC (Staphylococcus aureus) [µM]	IC50 (Plasmodium falciparum) [µM]
CC1=CC(=O)[C@@H]2[C@H]3[C@H](CC[C@]2(O)C1)C(=O)c1c(O)cccc1[C@@H]3O	> 150	9.5 (≈ 3.12 µg/mL)	> 150	> 150	> 150	147	> 150	> 150	28.3
CC1=CC(=O)[C@@H]2C3=C(CC[C@]2(O)C1)C(=O)c1c(O)cccc1C3=O	2.2	0.6 (≈ 0.195 µg/mL)	> 150	> 150	> 150	1.8	2.2	> 150	2.2
CC1=C[C@@H](O)[C@H]2[C@](O)(CC[C@]3(O)C(=O)c4c(O)cccc4[C@H](O)[C@@]23O)C1	> 138	138 (≈ 50 µg/mL)	> 138	> 138	> 138	> 138	> 138	> 138	> 28
Cc1ccc2c3c(ccc2c1)C(=O)c1c(O)cccc1C3=O	55.3	10.9 (≈ 3.14 µg/mL)	> 150	> 150	> 150	35.4	83.3	> 150	> 35
CC1=C[C@@H]2O[C@]34CC[C@](O)(C1)[C@H]2[C@]3(O)[C@@H](O)c1cccc(O)c1C4=O	> 145	145 (≈ 50 µg/mL)	> 145	> 145	> 145	> 145	> 145	> 145	> 28
Cc1cc(O)c2c(c1)CCC1=C2C(=O)c2cccc(O)c2C1=O	1.1	0.3 (≈ 0.0919 µg/mL)	> 150	> 150	> 150	1.4	3	> 150	2.6
CC1=C[C@@H](O)[C@@H]2C3=C(CC[C@]2(O)C1)C(=O)c1c(O)cccc1C3=O	3.4	2.4 (≈ 0.783 µg/mL)	> 150	> 150	> 150	1.1	2.3	> 150	2.5
C[C@@H]1[C@H](O)[C@@H](C)/C=C/C=C/C=C/C=C/C=C/C=C/C=C/[C@H](O[C@@H]2O[C@H](C)[C@@H](O)[C@H](N)[C@@H]2O)C[C@@H]2O[C@](O)(C[C@@H](O)C[C@@H](O)[C@H](O)CC[C@@H](O)C[C@@H](O)CC(=O)O[C@H]1C)C[C@H](O)[C@H]2C(=O)O [AMPHOTERICIN B]	–	–	–	1.7 (≈ 1.57 µg/mL)	0.8 (≈ 0.739 µg/mL)	–	–	–	–
C[C@H]1[C@@H](O)O[C@@H]2O[C@@]3(C)CC[C@H]4[C@H](C)CC[C@@H]1[C@@]24OO3 [ARTENIMOL]	–	–	–	–	–	–	–	–	0.002
Cc1c2ccncc2c(C)c2c1[nH]c1ccccc12 [ELLIPTECINE]	–	–	–	–	–	4.5	13.7	–	–
CC[C@H]1OC(=O)[C@H](C)[C@@H](O[C@H]2C[C@@](C)(OC)[C@@H](O)[C@H](C)O2)[C@H](C)[C@@H](O[C@@H]2O[C@H](C)C[C@H](N(C)C)[C@H]2O)[C@](C)(O)C[C@@H](C)C(=O)[C@H](C)[C@@H](O)[C@]1(C)O [ERYTHROMYCIN]	–	–	8.5 (≈ 6.24 µg/mL)	–	–	–	–	–	–
NNC(=O)c1ccncc1 [ISONIAZID]	–	0.5 (≈ 0.0686 µg/mL)	–	–	–	–	–	–	–
CO[C@H]1/C=C/O[C@@]2(C)Oc3c(C)c(O)c4c(O)c(c(/C=N/N5CCN(C)CC5)c(O)c4c3C2=O)NC(=O)/C(C)=C\C=C\[C@H](C)[C@H](O)[C@@H](C)[C@@H](O)[C@@H](C)[C@H](OC(C)=O)[C@@H]1C [RIFAMPIN]	–	0.006 (≈ 0.00494 µg/mL)	3.8 (≈ 3.13 µg/mL)	–	–	–	–	1.9 (≈ 1.56 µg/mL)	–
Cc1cc(O)c2c3c(ccc2c1)C(=O)c1c(O)cccc1C3=O [TETRANGULOL]	18	2.6 (≈ 0.791 µg/mL)	> 150	> 150	> 150	4.4	17.1	> 150	5.9
CN[C@H](CC(C)C)C(=O)N[C@H]1C(=O)N[C@@H](CC(N)=O)C(=O)N[C@H]2C(=O)N[C@H]3C(=O)N[C@H](C(=O)N[C@H](C(=O)O)c4cc(O)cc(O)c4-c4cc3ccc4O)[C@H](O)c3ccc(c(Cl)c3)Oc3cc2cc(c3O[C@@H]2O[C@H](CO)[C@@H](O)[C@H](O)[C@H]2O[C@H]2C[C@](C)(N)[C@H](O)[C@H](C)O2)Oc2ccc(cc2Cl)[C@H]1O [VANCOMYCIN]	–	–	–	–	–	–	–	0.3 (≈ 0.435 µg/mL)	–
